What was measured:
Format in all cases: cell-based
[1] = system: Klebsiella; assay: Bacterial growth over time in urine samples with different antibiotics (FIG. 10); conditions: urine samples containing Klebsiella; growth curve compared with control line
Description: As a first stage a biological sample containing urine is obtained. A spinning process is applied to the sample and the sample is aliquoted or otherwise divided into wells. The samples are then incubated in an incubator. After a pre-determined time, each sample, in a sample chamber, is moved into a detection configuration with the detection apparatus. This may involve placing the sample in a cuvette into the sample chamber. This may involve sequentially moving a plurality of sample chambers into the detection configuration. More than one measurement for each sample may be performed and stored to establish growth curves, for example, those shown in FIGS. 6, 7, 8 and 10.
FIG. 10 is a plot of bacterial growth as a function of time in urine samples in the presence of different types of antibiotics. The urine samples contain a significant amount of Klebsiella resistant to meropenem and susceptible to penicillin, amoxicillin, gentamicin and ciprofloxacin. The control line is the upper most line.
The second upper most line correspond to results for a urine sample treated with meropenem. The second upper most line overlaps in part with the control line. The urine sample is thus shown to be resistant to meropenem. The other lines correspond to results for urine samples treated with ciprofloxacin, gentamicin, penicillin and amoxicillin.

[2] = system: bacterial growth of samples; assay: Detection apparatus, bacterial growth with antibiotics at EUCAST breakpoint, FIG. 8(a) / Table 1; parameters: key to S or R result (sensitive / resistant): S: sensitive; R: resistant; conditions: Table 1, FIG. 8(a); antibiotic at EUCAST breakpoint concentration
Description: (§1) FIG. 8(a) and FIG. 8(b) are plots showing bacterial growth of samples as a function of time in the presence of different types of antibiotics. FIGS. 8(a) and 8(b) illustrate break points for different types of antibiotics. Measurements derived using the data shown in FIGS. 8(a) and 8(b) are shown in Table 1 and Table 2, respectively.
(§2) At a fourth step, a test process is performed that includes incubation and obtaining readings. Tests will typically run for a maximum of 30 minutes.
(§3) At a fifth step, an analysis process is performed based on the readings obtained from the test process. The analysis process includes determining if the strain is sensitive or resistant to the or an antibiotic or other agent in the sample chamber based on the obtained readings. Determining whether a sample is sensitive or resistant to an antibiotic or other agent may be referred to as obtaining an S result or an R result. Determining if a sample is a S result or an R result may include comparing a reading to threshold criteria.
(§4) As a first example, if the sample fails to show a 50% inhibition, the sample will be declared R after 30 minutes. In some embodiments, the analysis process includes providing sensitivity results.

[3] = system: bacterial growth of samples; assay: Reference susceptibility test (Vitek 2), sample of FIG. 8(b) / Table 2; conditions: Table 2, sample of FIG. 8(b)
Source text: as §1

[4] = system: bacterial growth of samples; assay: Reference susceptibility test (Vitek 2), sample of FIG. 8(a) / Table 1; conditions: Table 1, sample of FIG. 8(a)
Source text: as §1

[5] = system: bacterial growth of samples; assay: Detection apparatus, bacterial growth with antibiotics at EUCAST breakpoint, FIG. 8(b) / Table 2; parameters: key to S or R result (sensitive / resistant): S: sensitive; R: resistant; conditions: Table 2, FIG. 8(b); antibiotic at EUCAST breakpoint concentration
Description: as §1, §2, §3, §4

[6] = system: E. coli; assay: Bacterial growth over time by light scattering at different antibiotic concentrations (FIGS. 6 and 7); conditions: from plot of detector output vs time
Source text: Any suitable detection and analysis system may be used with the embodiments of FIGS. 1 to 5. In some embodiments a detection and analysis system as described in WO 2016/128747 is used. The content of WO 2016/128747 is hereby incorporated by reference. In some embodiments a light source in the form of a 635 nm wavelength laser is used (any light in the wavelength range 620-750 nm is used in some other embodiments). The laser in this embodiment is connected to a signal generator that is adapted to control a modulation frequency and phase of the laser output. The photodetector is connected to a digital phase sensitive detector (PSD). An input of an amplifier is connected to the signal generator. An output of the amplifier is connected to a digital oscilloscope 66. […]
The signal generator is arranged to modulate the output frequency of the laser source. […] The detected signal is filtered by the PSD. The PSD filters the detected signal from the photodetector. The PSD synchronizes the detected signal with the modulation applied to the light source to provide a dampening system that eliminates unwanted noise, for example, background electrical or luminous noise. The filtered signal is sent to the digital oscilloscope to be recorded. […]

Compound | susceptibility of bacteria in urine sample [1] | S or R result (sensitive / resistant) [2] | Time To Results [2] [min] | Reference (Vitek 2 result) [3] | Reference (Vitek 2 result) [4] [Mg/L] | S or R result (sensitive / resistant) [5] | Time To Results [5] [min] | mode of action [6] | minimum inhibitory concentration (MIC) [6]
CC1(C)S[C@@H]2[C@H](NC(=O)[C@H](N)c3ccc(O)cc3)C(=O)N2[C@H]1C(=O)O [Amoxicillin] | susceptible | (S) | 2.93 | – | – | – | – | – | –
CC1(C)S[C@@H]2[C@H](NC(=O)[C@H](N)c3ccccc3)C(=O)N2[C@H]1C(=O)O [Ampicillin] | – | – | – | >0.5 Mg/L | 8 | (R) | >30 | – | –
O=C(O)c1cn(C2CC2)c2cc(N3CCNCC3)c(F)cc2c1=O [Ciprofloxacin] | susceptible | (S) | 4.4 | 0.5 Mg/L | ≤0.25 | (S) | 3.37 | – | –
CC[C@H]1OC(=O)[C@H](C)[C@@H](O[C@H]2C[C@@](C)(OC)[C@@H](O)[C@H](C)O2)[C@H](C)[C@@H](O[C@@H]2O[C@H](C)C[C@H](N(C)C)[C@H]2O)[C@](C)(O)C[C@@H](C)C(=O)[C@H](C)[C@@H](O)[C@]1(C)O [Erythromycin] | – | – | – | 1 Mg/L | – | (S) | 3.3 | – | –
C[C@@H](O)[C@H]1C(=O)N2C(C(=O)O)=C(S[C@@H]3CN[C@H](C(=O)N(C)C)C3)[C@H](C)[C@H]12 [Meropenem, meropenem] | resistant | (S) | 2.57 | – | ≤0.25 | (S) | 2.2 | causes lysis and a reduction in scattering | –
COc1c(N2C[C@@H]3CCCN[C@@H]3C2)c(F)cc2c(=O)c(C(=O)O)cn(C3CC3)c12 [Moxifloxacin] | – | – | – | – | ≤0.25 | – | – | – | –
O=C1CN(/N=C/c2ccc([N+](=O)[O-])o2)C(=O)N1 [Nitrofurantoin] | – | – | – | 16 Mg/L | – | (S) | 3.37 | – | –
COc1cc(Cc2cnc(N)nc2N)cc(OC)c1OC [Trimethoprim] | – | (S) | 0.73 | 0.5-2 Mg/L | ≤0.5 | (S) | 7.33 | – | –
CN[C@H](CC(C)C)C(=O)N[C@H]1C(=O)N[C@@H](CC(N)=O)C(=O)N[C@H]2C(=O)N[C@H]3C(=O)N[C@H](C(=O)N[C@H](C(=O)O)c4cc(O)cc(O)c4-c4cc3ccc4O)[C@H](O)c3ccc(c(Cl)c3)Oc3cc2cc(c3O[C@@H]2O[C@H](CO)[C@@H](O)[C@H](O)[C@H]2O[C@H]2C[C@](C)(N)[C@H](O)[C@H](C)O2)Oc2ccc(cc2Cl)[C@H]1O [Vancomycin] | – | – | – | 1 Mg/L | – | (S) | 7.33 | – | –
Augmentin (co-amox) | – | (S) | 2.2 | ≤2 Mg/L | 2 | (R) | >30 | – | –
gentamicin | susceptible | (S) | 0.73 | 0.5-8 Mg/L | ≤1 | (S) | 0.37 | – | below 2 mg/L
penicillin | susceptible | – | – | – | – | – | – | – | –
